{"source": "patent US20230346775A1", "about": "“CANCER TREATMENT WITH TLR AGONIST” (BIRDIE BIOPHARMACEUTICALS, INC., priority 2020, published 2023)", "type_in_all_cases": "in vivo, human", "key": {"[1]": {"test_system": "unresectable or metastatic solid tumors", "test": "Efficacy of Compound A salt monotherapy, best response by irRECIST", "details": "for patients with clinical benefit (irPR or irSD>18 weeks): 16 patients", "description": "(§1) A treatment cycle is 21 days with 3 weekly infusions on days 1, 8, and 15.\nResponse was defined by best overall response—immune-related partial response (irPR), immune-related stable disease (irSD) with study duration over or under 18 weeks, and unconfirmed immune-related progressive disease (uirPD). Clinical benefit was defined as either partial response (irPR) or irSD >18 weeks. IP-10 cytokine induction levels of 32 patients evaluable for efficacy, were analyzed with respect to dosage in Cycle 1."}, "[2]": {"test": "Clinical benefit (RECIST 1.1) versus AUC/Cmax, Compound A monotherapy", "details": "human, plasma, intravenous, Cmax of Compound A free base associated with greater likelihood of clinical benefit", "from_the_text": "(§2) Clinical benefit was defined as radiographic complete response, partial response or stable disease >18 weeks based on Response Evaluation Criteria in Solid Tumors (RECIST) version 1.1."}, "[3]": {"test_system": "advanced solid cancers", "test": "Clinical benefit (RECIST 1.1) versus AUC/Cmax, Compound A monotherapy", "from_the_text": "as §2"}, "[4]": {"test": "Clinical benefit (RECIST 1.1) versus AUC/Cmax, Compound A in combination with pembrolizumab", "details": "human, combination with anti-PD-1 mAb (pembrolizumab)", "from_the_text": "as §2"}, "[5]": {"test_system": "advanced solid cancers", "test": "Clinical benefit (RECIST 1.1) versus AUC/Cmax, Compound A in combination with pembrolizumab", "details": "combination with pembrolizumab", "from_the_text": "as §2"}, "[6]": {"test": "Clinical benefit (RECIST 1.1) versus AUC/Cmax, Compound A in combination with atezolizumab", "details": "human, plasma, combination with anti-PD-L1 mAb (atezolizumab)", "from_the_text": "as §2"}, "[7]": {"test_system": "advanced solid cancers", "test": "Clinical benefit (RECIST 1.1) versus AUC/Cmax, Compound A in combination with atezolizumab", "details": "combination with atezolizumab", "from_the_text": "as §2"}, "[8]": {"test": "Phase 1 pharmacokinetics: Compound A free base in plasma after intravenous infusion", "from_the_text": "as §1\nThe Mosteller Formula was used: BSA=√height (cm)×weight (kg)/3600."}, "[9]": {"test": "Phase 1 safety, drug-related adverse events, Compound A monotherapy", "from_the_text": "Toxicities and adverse events are sometimes graded according to a 5-point scale. A grade 1 or mild toxicity is asymptomatic or induces only mild symptoms; may be characterized by clinical or diagnostic observations only; and intervention is not indicated. A grade 2 or moderate toxicity may impair activities of daily living (such as preparing meals, shopping, managing money, using the telephone, etc.) but only minimal, local, or non-invasive interventions are indicated. Grade 3 toxicities are medically significant but not immediately life-threatening; hospitalization or prolongation of hospitalization is indicated; activities of daily living related to self-care (such as bathing, dressing and undressing, feeding oneself, using the toilet, taking medications, and not being bedridden) may be impaired. Grade 4 toxicities are life-threatening and urgent intervention is indicated. Grade 5 toxicity produces an adverse event-related death.\nas §1\nMost common drug-related AE's were associated with immune activation."}, "[10]": {"test": "Plasma IP-10 induction from baseline (MSD cytokine assay)", "details": "human, plasma, intravenous; read-out: minimum Cmax required to induce enough IP-10 that results in clinical benefit", "description": "(§3) Pharmacodynamic analysis of Compound A included cytokine quantification and whole-blood RNA transcriptional profiling. Collected plasma samples were quantified for cytokine biomarkers implicated in inflammatory responses, immune system regulation, and other biological processes. Assays for cytokine quantification were performed by Frontage Laboratories, Inc. utilizing Meso Scale Discovery (MSD) V-PLEX and U-PLEX plates pre-coated with capture antibodies for IL-5, IL-17A, IFN-γ, IL-2, IL-6, IL-8, IL-10, IL-12p70, TNF-α, IFN-α, IFN-β, and IP-10. Plasma samples were added directly to the plate to allow the analytes in the samples to bind to the capture antibodies. Electrochemiluminiscent label (MSD SOLFO-TAG™)-conjugated detection antibodies were then added to visualize the plates by a MSD plate reader. The luminescence intensity was measured to quantify the amount of captured analytes (or cytokine levels) in each sample. […] Plasma samples were collected at Cycle 1, Cycle 3, and Cycle 6. Of the cytokines quantified, IP-10, IFN-γ, IL-6, IL-8, IL-10, and TNF-α had detectable levels. […] The greater peak cytokine level from either Cycle 1 Days 1 or 8 were selected for the analysis to be inclusive of all subjects. […] Response was defined by best overall response—immune-related partial response (irPR), immune-related stable disease (irSD) with study duration over or under 18 weeks, and unconfirmed immune-related progressive disease (uirPD). Clinical benefit was defined as either partial response (irPR) or irSD >18 weeks. […] For example, patient A dosed with dose level 2 with slower metabolism may have higher AUC and/or Cmax than patient B who was dosed with dose level 3, as a result patient A may produce higher level of IP-10 induction from baseline."}, "[11]": {"test_system": "IP-10", "test": "Plasma IP-10 induction from baseline (MSD cytokine assay)", "details": "for mean IP-10 induction level from baseline: 16 patients, Cycle 1", "description": "as §3"}, "[12]": {"test_system": "IFN-γ", "test": "Plasma IFN-γ induction from baseline (MSD cytokine assay)", "details": "monotherapy, data not shown", "description": "Pharmacodynamic analysis of Compound A included cytokine quantification and whole-blood RNA transcriptional profiling.\nCollected plasma samples were quantified for cytokine biomarkers implicated in inflammatory responses, immune system regulation, and other biological processes. Assays for cytokine quantification were performed by Frontage Laboratories, Inc. utilizing Meso Scale Discovery (MSD) V-PLEX and U-PLEX plates pre-coated with capture antibodies for IL-5, IL-17A, IFN-γ, IL-2, IL-6, IL-8, IL-10, IL-12p70, TNF-α, IFN-α, IFN-β, and IP-10. Plasma samples were added directly to the plate to allow the analytes in the samples to bind to the capture antibodies. Electrochemiluminiscent label (MSD SOLFO-TAG™)-conjugated detection antibodies were then added to visualize the plates by a MSD plate reader. The luminescence intensity was measured to quantify the amount of captured analytes (or cytokine levels) in each sample.\nPlasma samples were collected at Cycle 1, Cycle 3, and Cycle 6. Of the cytokines quantified, IP-10, IFN-γ, IL-6, IL-8, IL-10, and TNF-α had detectable levels. […] The greater peak cytokine level from either Cycle 1 Days 1 or 8 were selected for the analysis to be inclusive of all subjects."}, "[13]": {"details": "IP-10 induction, >5-fold increase (n = 17)"}, "[14]": {"details": "No IP-10 induction, <5-fold increase (n = 19)"}}}
{"smiles": "CCOCc1nc2c(N)nc3ccccc3c2n1CC(C)(C)O", "note": "[Compound A, 1-[4-amino-2-(ethoxymethyl)imidazo[4,5-c]quinolin-1-yl]-2-methylpropan-2-ol]", "values": [{"measurement": "patients with clinical benefit (irPR or irSD>18 weeks)", "setting": "[1]; high AUC group (above 2.09 ng/mL*Day)", "value": 7, "unit": "patients"}, {"measurement": "patients with clinical benefit (irPR or irSD>18 weeks)", "setting": "[1]; high Cmax group (above 9.4 ng/mL)", "value": 7, "unit": "patients"}, {"measurement": "partial response [PR], number of subjects", "setting": "[1]; irRECIST, best response", "value": 2}, {"measurement": "stable disease [SD], number of subjects", "setting": "[1]; irRECIST, best response", "value": 18}, {"measurement": "disease control rate", "setting": "[1]; irRECIST, partial response + stable disease", "value": 63, "unit": "%"}, {"measurement": "patients with clinical benefit (irPR or irSD>18 weeks)", "setting": "[1]; low AUC group (below 2.09 ng/mL*Day)", "value": "two"}, {"measurement": "patients with clinical benefit (irPR or irSD>18 weeks)", "setting": "[1]; low Cmax group (below 9.4 ng/mL)", "value": "two"}, {"measurement": "progressive disease (PD) as best response", "setting": "[1]; monotherapy", "value": 38, "unit": "%"}, {"measurement": "progressive disease (PD) as best response, number", "setting": "[1]; monotherapy", "value": 12, "unit": "subjects"}, {"measurement": "subjects with prolonged disease control (study duration >18 weeks)", "setting": "[1]; monotherapy", "value": 22, "unit": "%"}, {"measurement": "subjects with prolonged disease control (study duration >18 weeks), number", "setting": "[1]; monotherapy", "value": 7, "unit": "subjects"}, {"measurement": "longest study duration", "setting": "[1]; one subject on monotherapy", "value": 68, "unit": "weeks"}, {"measurement": "Cmax", "setting": "[2]", "value": "≥ 8.38", "unit": "ng/mL"}, {"measurement": "patients with clinical benefit", "setting": "[3]; high AUC group (above 3.42 ng/mL*Day), 14 patients", "value": 50, "unit": "%"}, {"measurement": "patients with clinical benefit", "setting": "[3]; high Cmax group (above 8.38 ng/mL), 15 patients", "value": 47, "unit": "%"}, {"measurement": "patients with clinical benefit", "setting": "[3]; low AUC group (below 3.42 ng/mL*Day), 18 patients", "value": 11, "unit": "%"}, {"measurement": "patients with clinical benefit", "setting": "[3]; low Cmax group (below 8.38 ng/mL), 17 patients", "value": 12, "unit": "%"}, {"measurement": "Cmax", "setting": "[4]; in vivo, intravenous", "value": "≥ 7.65", "unit": "ng/mL"}, {"measurement": "Cmax", "setting": "[4]; plasma", "value": 7.6, "unit": "ng/mL"}, {"measurement": "patients with clinical benefit", "setting": "[5]; high AUC group (above 2.19 ng/mL*Day), 15 patients", "value": 47, "unit": "%"}, {"measurement": "patients with clinical benefit", "setting": "[5]; high Cmax group (above 7.65 ng/mL), 16 patients", "value": 44, "unit": "%"}, {"measurement": "patients with clinical benefit", "setting": "[5]; low AUC group (below 2.19 ng/mL*Day), 11 patients", "value": 27, "unit": "%"}, {"measurement": "patients with clinical benefit", "setting": "[5]; low Cmax group (below 7.65 ng/mL), 10 patients", "value": 30, "unit": "%"}, {"measurement": "Cmax", "setting": "[6]; intravenous", "value": "≥ 10.5", "unit": "ng/mL"}, {"measurement": "Cmax", "setting": "[6]", "value": 10.5, "unit": "ng/mL"}, {"measurement": "patients with clinical benefit", "setting": "[7]; high AUC group (above 2.14 ng/mL*Day), 10 patients", "value": 50, "unit": "%"}, {"measurement": "patients with clinical benefit", "setting": "[7]; high Cmax group (above 10.5 ng/mL), 10 patients", "value": 40, "unit": "%"}, {"measurement": "patients with clinical benefit", "setting": "[7]; low AUC group (below 2.14 ng/mL*Day), 15 patients", "value": 20, "unit": "%"}, {"measurement": "patients with clinical benefit", "setting": "[7]; low Cmax group (below 10.5 ng/mL), 15 patients", "value": 27, "unit": "%"}, {"measurement": "Compound A free base exposure versus dose", "setting": "[8]; five escalating dosages 0.30-0.90 mg/m^2 intravenously", "value": "dose-dependent increase"}, {"measurement": "half-life", "setting": "[8]; human, plasma, iv", "value": "~4", "unit": "h"}, {"measurement": "dose dependence of toxicity", "setting": "[9]; 0.30-0.90 mg/m^2", "value": "no apparent dose-dependent increase in toxicity"}, {"measurement": "Grade 1 AE, subjects (%)", "setting": "[9]; [13]", "value": "4 (24%)"}, {"measurement": "Grade 2 AE, subjects (%)", "setting": "[9]; [13]", "value": "7 (41%)"}, {"measurement": "Grade 3 AE, subjects (%)", "setting": "[9]; [13]", "value": "2 (12%)"}, {"measurement": "No AE, subjects (%)", "setting": "[9]; [13]", "value": "4 (24%)"}, {"measurement": "Grade 1 AE, subjects (%)", "setting": "[9]; [14]", "value": "6 (32%)"}, {"measurement": "Grade 2 AE, subjects (%)", "setting": "[9]; [14]", "value": "5 (26%)"}, {"measurement": "Grade 3 AE, subjects (%)", "setting": "[9]; [14]", "value": "1 (5%)"}, {"measurement": "No AE, subjects (%)", "setting": "[9]; [14]", "value": "7 (37%)"}, {"measurement": "Grade 4 or 5 adverse events", "setting": "[9]; monotherapy, 36 subjects", "value": "no Grade 4 or 5 adverse events"}, {"measurement": "overall tolerability", "setting": "[9]; monotherapy, 36 subjects", "value": "well-tolerated"}, {"measurement": "subjects without any drug-related AE", "setting": "[9]; monotherapy, of 36 subjects", "value": 31, "unit": "%"}, {"measurement": "subjects without any drug-related AE, number", "setting": "[9]; monotherapy, of 36 subjects", "value": 11}, {"measurement": "Cmax", "setting": "[10]", "value": "≥ 9.4", "unit": "ng/mL"}, {"measurement": "mean IP-10 induction level from baseline", "setting": "[11]; high AUC group (AUC above 2.09 ng/mL*Day)", "value": 27.2, "unit": "fold"}, {"measurement": "mean IP-10 induction level from baseline", "setting": "[11]; high Cmax group (Cmax above 9.4 ng/mL)", "value": 31.9, "unit": "fold"}, {"measurement": "mean IP-10 induction level from baseline", "setting": "[11]; low AUC group (AUC below 2.09 ng/mL*Day)", "value": 3.68, "unit": "fold"}, {"measurement": "mean IP-10 induction level from baseline", "setting": "[11]; low Cmax group (Cmax below 9.4 ng/mL)", "value": 5.09, "unit": "fold"}, {"measurement": "effect on blood IP-10 levels", "setting": "[11]; monotherapy, FIG. 2A", "value": "significantly increased"}, {"measurement": "effect on blood IFN-γ levels", "setting": "[12]", "value": "significantly increased"}]}
